Measurements taken from patent US10363229B2, “Methods and compositions for the treatment of cancer” (priority 2009, dated 2019).

Key:
melanoma cells = assay: Cell proliferation, BrdU incorporation into DNA; assay type: cell-based, mouse; conditions: 2% methyl sulfone
Experimental: Cells were plated onto sterile 12 mm coverslips in 35 mm tissue culture plates and incubated at 37° C., 5% CO2. After 24 hours, 2% methyl sulfone in medium or medium alone was added the plates and incubated at 37° C., 5% CO2 for 48 and 72 hrs. BrdU (Molecular Probes, Eugene, Oreg., USA; diluted ⅓ in RPMI medium) was added to each plate for 60 minutes at 37° C., 5% CO2. Coverslips were transferred to porcelain holders, washed with PBS, fixed in methanol/acetone (1:1), washed with PBS, and incubated in 5% BSA/PBS for 30 minutes at room temperature. To denature DNA, coverslips were placed in 0.1N HCL/1% Triton X-100 for 10 minutes at room temperature. After washing in PBS, cells were incubated with Alexa Fluor 488 anti-BrdU antibody (Molecular Probes, Eugene, Oreg.; diluted 1/20 in 5% BSA/PBS) for 60 minutes at room temperature. Cells were washed in PBS and incubated with Hoechst (diluted 1/1000 in PBS) in the dark at room temperature. After washing in PBS, cells were dipped in dH2O and drained onto Kim Wipes. SlowFade mounting medium (Molecular Probes, Eugene, Oreg.) was added to a glass slide and coverslips were placed face down onto slides and sealed with clear nail polish. […]

[1] = test system: microtubules in melanoma cells; assay: Immunofluorescence of microtubules, incl. vinblastine stability test; assay type: cell-based, mouse
Experimental: Cells were plated in 6-100 mm tissue culture plates, each containing 1 polylysine-coated 10-well slide, or plated onto polylysine-coated coverslips. Once cells were approximately 50% confluent, 2% methyl sulfone was added to cells for 10, 30, 60, 90, and 120 minutes. At each time point cells were placed in microtubule stabilizing buffer ( ) for 10 minutes followed by incubation in −20° C. methanol for 5 minutes. Cells were washed twice in 0.1% Triton X-100 in PBS at room temperature, then incubated with mouse monoclonal anti-alpha-tubulin antibody (Santa Cruz Biotech, Calif.; diluted 1/200 in 1% BSA/PBS) for 1.5 hours. Cells were washed 5 times in 0.1% Triton X-100/PBS, 3 minutes each. Cells were incubated with secondary antibody (Alexa Fluor 568 rabbit anti-mouse antibody; diluted 1/100 in 1%/PBS) for 30 minutes in the dark. Cells were washed five times in 0.1% Triton X-100/PBS, three minutes each. Cells were washed two times in PBS at 2 minute intervals and incubated with DAPI (1 μg/ml in PBS) for 5 minutes at room temperature and in the dark. Cells were washed in PBS for one minute. SlowFade was added to glass slides, coverslips were placed cell side down and sealed with nail polish. Microtubules were viewed at the Center for Cell Analysis and Modeling, University of Connecticut Health Center, Farmington, Conn., with an Axioplan CCD Microscope equipped with a 40×1.3 NA FL objective lens and Photometrics PXL-EEV37 high speed digital cooled CCD camera via Metamorph image acquisition and analysis software (Universal Imaging Corp., Downington, Pa.).
One assay to test stability of microtubules is to give cells increasing concentrations of a microtubule-disassembly drug and use immunofluorescence microscopy to assess microtubule lengths (Caron et al). A higher concentration of drug will be required to disassemble the more stabilized microtubules. We used different concentrations of the anti-microtubule drug, vinblastine, to assess microtubule stability in control cells and cells incubated with 2% methyl sulfone.

[2] = test system: neutrophils from healthy volunteers; assay: Apoptosis of normal neutrophils by Flow Cytometry; assay type: cell-based, human; conditions: 10% methyl sulfone, 20 hours
Experimental: Blood was drawn from healthy volunteers and white blood cells (e.g., lymphocytes, neutrophils) were enriched using Ficoll-Plaque. Cells were incubated in Petri dishes containing MEM with 7% fetal calf serum in a CO2 (5%) incubator at 37° C.; Methyl sulfone was present at concentrations of 0, 3, 6, or 10%. After 20 hours, cells were incubated with antibodies specific to T-lymphocytes (CD3 and CD4 T-cells), B-lymphocytes (B-cells) and neutrophils, and the percent of apoptotic cells was determined by Flow Cytometry. This is a technique that identifies specific cell types (e.g., CD3 T-cells, CD4 T-cells, B-cells, neutrophils) within a mixed population of blood cells, and then determines whether the cells are alive or apoptotic.
After 20 hours, cells were incubated with fluorescent antibodies to identify T-cells, B-cells and neutrophils, and then processed by Flow Cytometry (FIG. 15).

[3] = test system: actin filaments in melanoma cells; assay: Immunofluorescence of actin filaments; assay type: cell-based, mouse; conditions: 2% methyl sulfone, 72 hours
Experimental: Cells were plated onto 10-well slides ( ) that were pre-treated with sulfuric acid. After 24 hours, medium was removed and 2% methyl sulfone in medium was added to half the slides; control cells received medium alone. At 72 and 144 hours, cells were washed in 37° C. PBS, pH 7.4, and fixed in 3.7% formaldehyde in PBS for 10 minutes. PBS was used to wash cells three times followed by a wash in 0.1% Triton X-100/PBS for 5 minutes. Cells were again washed three times in PBS, then in 1% BSA/PBS for 20 minutes. Cells were incubated with Rhodamine-labeled Phalloidin (Molecular Probes, Eugene, Oreg.; diluted 1/40 in 1% BSA/PBS) for 20 minutes. After washing three times in PBS, SlowFade was added to each well. Glass coverslips were placed over each slide and sealed with nail polish. Images were visualized using 568-nm excitation on a Perkin Elmer Ultraview RS5 spinning-disk confocal scanning system mounted on a Nikon TE2000 inverted microscope with a 100×1.4 NA Plan Apo oil immersion objective. (William A. Mohler, Ph.D., Director, Spinning Disk Microscope Facility, University of Connecticut Health Center).

methyl sulfone was tested, and the “cells synthesizing DNA (BrdU incorporation)” value (melanoma cells; 48 hours (control 14%)) was 0.03%, the “cells synthesizing DNA (BrdU incorporation)” value (melanoma cells; 72 hours (control 21%)) was 0% and the “time to microtubule disassembly after adding drug” value ([1]; 2% methyl sulfone) was no more than 10 min. The “microtubules in the presence of vinblastine (stability)” value ([1]; 2% methyl sulfone plus 10^−7 M vinblastine) was “clearly visible”, the “pattern of microtubule reassembly” value ([1]; 2% methyl sulfone, over the next two hours) was “re-appeared in an orderly pattern” and the effect on neutrophils [2] was “unharmed”. The “distribution of actin filaments” value [3] was “clearly visible at the cell surface in small protrusions that contacted neighboring cells”.
